Experimental data as given in patent US20230124862A1, “BISMUTH THIOL COMPOUNDS AND COMPOSITIONS AND METHODS OF TREATING MICROBIAL CO-INFECTIONS” (Microbion Corporation, priority 2020, published 2023).
“And” between values parts separate entries of the source, which are not always exact repeats. Equal entries are not always repeated. Where two headings read alike, the source gives them in different places.

Experiments:
[1] = format: in vivo, beagle dogs; conditions: dog, per animal and Grp Avg, sampling times not given
Method: Once adequately conditioned to the restraint device and face-masks, the animals are individually exposed to the test article aerosols. Animals receive a single face-mask inhalation exposure in a ramp study design to test article aerosols for up to 60 min. Animal observations during and post exposure determine the tolerance of inhaled BisEDT aerosols.
Blood Collections and Bioanalytical Analysis: Blood are collected for pharmacokinetic (PK) analysis prior to exposure, then at 4 hr (±5 min) post exposure, and again on Day 1, Day 2, Day 7 (pre- and 4 hr (±5 min)-post exposure), Day 8, Day 9, Day 10, Day 11, Day 12, Day 13, and Day 14. A total of 0.25 mL is collected at each timepoint. No PK blood is collected from the vehicle control (Group 1) animals; only animals exposed to BisEDT have blood collected for PK analysis. Collected samples are flash frozen without processing for shipment to Medpace for bioanalytical analysis. Additional blood is collected from all animals in all groups for hematology (1 mL) and clinical chemistry (1 mL) at baseline, Day 7 (pre-exposure), and again at euthanasia. Blood (2-2 mL) is collected from all animals at necropsy for coagulation analysis (d-Dimer, fibrinogen, PT, and PTT).
For hematology analyses, whole blood (1 ml) will be collected with vacutainers containing K3EDTA as an anticoagulant.
Hematology samples are analyzed by automated (ADVIA™ 120 Hematology System, Siemens Medical Solutions Diagnostics, Tarrytown, N.Y.) analyses. Disposition will be recorded on the sample processing form.

in vivo = experiment: in vivo; set-up: species or system F344 rats; conditions: both sexes; for concentration at 30 hr: sac time 30 hr
Method: Detailed gross necropsies were performed on all animals (found dead, moribund, or scheduled necropsy) and consisted of a complete external and internal examination including body orifices and cranial, thoracic, and abdominal organs and tissues. All gross findings will be recorded in descriptive terms. […] Lungs collected and weighed.

[2] = format: in vivo, F344 rats; conditions: rat, inhalation
Method: Inhalation Exposure: The initial exposure of BisEDT (Bismuth-1,2-ethanedithiol) was formulated as a […] at 100 mg/mL in suspension in 0.5% Tween 80, 10 mM sodium phosphate, pH 7.4, in NaCl (adjusted to approximately 300 mOsm). Aerosols were generated with a commercial compressed air jet nebulizer, Pad LC Plus, operated with an inlet pressure of 20 psi. The aerosols were transitioned into a rodent nose-only inhalation exposure system. The exposure system was operated with an inlet air flow of −5.2 L/min and an exhaust air flow of −5 L/min.

[3] = Group 2 (55-56 ug/kg lung deposited)
[4] = Group 4 (176-197 ug/kg lung deposited)

## C1C[S][Bi]([S]CC[S][Bi]2[S]CC[S]2)[S]1 [BisEDT, Bismuth-1,2-ethanedithiol]
[1]; [3]
  BASO: 0.12 ^3/uL (2×) and 0.15 ^3/uL and 0.08 ^3/uL (2×) and 0.11 ^3/uL and 0.10 ^3/uL and 0.07 ^3/uL and 0.13 ^3/uL
  EOS: 0.30 ^3/uL and 0.45 ^3/uL and 0.39 ^3/uL and 0.14 ^3/uL and 0.09 ^3/uL and 0.06 ^3/uL and 0.22 ^3/uL and 0.27 ^3/uL and 0.23 ^3/uL
  HCT: 45.8% and 43.1% and 41.8% and 49.0% and 43.7% and 42.9% and 47.4% and 43.4% and 42.4%
  HGB: 15.6 g/dL and 15.0 g/dL (3×) and 14.2 g/dL and 16.4 g/dL and 14.3 g/dL (2×) and 16.0 g/dL
  LUC: 0.01 ^3/uL (5×) and 0.02 ^3/uL (4×)
  LYMP: 2.81 ^3/uL and 2.73 ^3/uL and 2.09 ^3/uL and 2.27 ^3/uL and 2.82 ^3/uL and 2.61 ^3/uL and 2.54 ^3/uL and 2.78 ^3/uL and 2.35 ^3/uL
  MCH: 22.8 pg (2×) and 23.2 pg (2×) and 22.7 pg and 22.3 pg (2×) and 21.9 pg and 23.0 pg
  MCHC: 34.1 g/dL (2×) and 34.9 g/dL and 33.4 g/dL and 34.4 g/dL and 33.2 g/dL and 33.8 g/dL and 34.7 g/dL and 33.7 g/dL
  MCV: 67.0 fL and 66.4 fL and 66.5 fL and 69.5 fL and 64.8 fL and 66.0 fL and 68.3 fL and 65.6 fL and 66.3 fL
  MONO: 0.63 ^3/uL and 0.67 ^3/uL and 0.53 ^3/uL and 0.50 ^3/uL and 0.51 ^3/uL (2×) and 0.57 ^3/uL and 0.59 ^3/uL and 0.52 ^3/uL
  NEUT: 5.31 ^3/uL and 5.11 ^3/uL and 2.88 ^3/uL and 3.96 ^3/uL and 4.26 ^3/uL and 4.83 ^3/uL and 4.64 ^3/uL and 4.69 ^3/uL and 3.86 ^3/uL
  PLT: 197 ^3/uL and 166 ^3/uL and 161 ^3/uL and 206 ^3/uL and 294 ^3/uL and 304 ^3/uL and 201.5 ^3/uL and 230.0 ^3/uL and 232.5 ^3/uL
  RBC: 6.83 ^6/uL and 6.49 ^6/uL and 6.28 ^6/uL and 7.05 ^6/uL and 6.74 ^6/uL and 6.50 ^6/uL and 6.94 ^6/uL and 6.62 ^6/uL and 6.39 ^6/uL
  RET %: 0.34% and 0.55% and 0.60% and 0.65% and 0.25% and 0.31% and 0.50% and 0.40% and 0.46%
  WBC: 9.18 ^3/uL and 9.13 ^3/uL and 5.99 ^3/uL and 6.99 ^3/uL and 7.77 ^3/uL and 8.10 ^3/uL and 8.09 ^3/uL and 8.45 ^3/uL and 7.05 ^3/uL
[1]; [4]
  BASO: 0.07 ^3/uL (3×) and 0.04 ^3/uL (2×) and 0.09 ^3/uL (3×) and 0.06 ^3/uL and 0.08 ^3/uL (2×) and 0.05 ^3/uL and 0.10 ^3/uL (3×)
  EOS: 0.48 ^3/uL and 0.50 ^3/uL and 0.35 ^3/uL and 0.95 ^3/uL and 0.77 ^3/uL and 0.47 ^3/uL and 0.72 ^3/uL and 0.64 ^3/uL and 0.41 ^3/uL and 0.18 ^3/uL and 0.13 ^3/uL and 0.19 ^3/uL (2×) and 0.21 ^3/uL and 0.17 ^3/uL
  HCT: 42.7% and 47.5% and 45.4% and 41.9% and 50.6% and 47.6% and 42.30% and 49.05% and 46.50% and 39.8% and 40.7% and 37.1% and 44.2% and 38.45% and 42.45%
  HGB: 14.8 g/dL and 16.0 g/dL and 14.6 g/dL and 14.7 g/dL and 16.6 g/dL and 15.4 g/dL and 14.75 g/dL and 16.30 g/dL and 15.00 g/dL and 13.7 g/dL and 13.8 g/dL and 12.8 g/dL and 14.3 g/dL and 13.25 g/dL and 14.05 g/dL
  LUC: 0.01 ^3/uL (7×) and 0.02 ^3/uL (8×)
  LYMP: 2.68 ^3/uL and 3.18 ^3/uL and 2.78 ^3/uL (2×) and 2.88 ^3/uL and 3.04 ^3/uL and 2.82 ^3/uL and 3.11 ^3/uL and 2.80 ^3/uL and 2.46 ^3/uL and 2.59 ^3/uL and 2.32 ^3/uL and 2.87 ^3/uL and 2.39 ^3/uL and 2.73 ^3/uL
  MCH: 23.0 pg and 23.4 pg and 22.9 pg (2×) and 22.8 pg and 23.1 pg and 22.90 pg (2×) and 23.25 pg and 24.1 pg and 20.9 pg and 21.0 pg and 24.2 pg and 22.55 pg (2×)
  MCHC: 34.7 g/dL and 33.6 g/dL and 32.2 g/dL and 35.2 g/dL and 32.8 g/dL and 32.4 g/dL (2×) and 34.95 g/dL and 33.20 g/dL (2×) and 32.30 g/dL and 34.4 g/dL and 34.0 g/dL and 34.6 g/dL and 34.50 g/dL
  MCV: 66.3 fL and 69.7 fL and 71.3 fL and 64.8 fL and 70.4 fL and 70.9 fL and 65.55 fL and 70.05 fL and 71.10 fL and 70.1 fL and 61.6 fL and 60.8 fL and 74.7 fL and 65.45 fL and 68.15 fL
  MONO: 0.39 ^3/uL (2×) and 0.37 ^3/uL (2×) and 0.49 ^3/uL and 0.50 ^3/uL (2×) and 0.44 ^3/uL (2×) and 0.38 ^3/uL and 0.73 ^3/uL and 0.45 ^3/uL and 0.61 ^3/uL and 0.59 ^3/uL and 0.56 ^3/uL
  NEUT: 4.61 ^3/uL and 5.96 ^3/uL (2×) and 6.30 ^3/uL and 5.98 ^3/uL and 5.95 ^3/uL and 6.74 ^3/uL and 5.30 ^3/uL and 6.52 ^3/uL and 6.73 ^3/uL and 4.11 ^3/uL and 3.60 ^3/uL and 7.39 ^3/uL and 5.17 ^3/uL and 5.75 ^3/uL
  PLT: 208 ^3/uL and 214 ^3/uL and 213 ^3/uL and 246 ^3/uL and 238 ^3/uL and 251 ^3/uL and 227.00 ^3/uL and 226.00 ^3/uL and 232.00 ^3/uL and 257 ^3/uL and 308 ^3/uL and 313 ^3/uL and 248 ^3/uL and 285.00 ^3/uL and 278.00 ^3/uL
  RBC: 6.44 ^6/uL and 6.81 ^6/uL and 6.37 ^6/uL and 6.46 ^6/uL and 7.19 ^6/uL and 6.71 ^6/uL and 6.45 ^6/uL and 7.00 ^6/uL and 6.54 ^6/uL and 5.68 ^6/uL and 6.61 ^6/uL and 6.11 ^6/uL and 5.92 ^6/uL and 5.90 ^6/uL and 6.27 ^6/uL
  RET %: 0.41% and 0.33% and 0.58% and 0.27% and 0.62% and 0.43% and 0.34% and 0.48% and 0.51% (2×) and 1.07% and 0.88% and 0.83% and 0.79% and 0.86%
  WBC: 8.23 ^3/uL and 10.09 ^3/uL and 9.86 ^3/uL and 10.41 ^3/uL and 10.37 ^3/uL and 10.50 ^3/uL and 9.32 ^3/uL (2×) and 10.23 ^3/uL and 10.18 ^3/uL and 10.21 ^3/uL and 7.45 ^3/uL and 6.63 ^3/uL and 11.18 ^3/uL and 8.42 ^3/uL
In vivo; F344, in vivo, rat, inhalation, dose 47 μg/kg, read-out: Mean BisEDT Conc, lung at sacrifice
  concentration at 30 hr: 4.8 ng/g
In vivo; F344, in vivo, rat, inhalation, dose 124 μg/kg, read-out: Mean BisEDT Conc, lung at sacrifice
  concentration at 30 hr: 5.9 ng/g
In vivo; F344, in vivo, rat, inhalation, dose 400 μg/kg, read-out: Mean BisEDT Conc, lung at sacrifice
  concentration at 30 hr: 12.1 ng/g
In vivo; F344, in vivo, rat, inhalation, dose 3000 μg/kg, sac time 24 hr, read-out: Mean BisEDT Conc, lung at sacrifice
  concentration at 24 hr: 82.3 ng/g
In vivo; F344, rat, in vivo, rats, 24 hours after dosing, read-out: lung tissue drug levels higher than blood levels
  Kp at 24 hours: 4 to 5
[2]; dose 47 μg/kg, 8 hr
  Mean BisEDT Conc, whole blood: 114 ng/mL
[2]; dose 47 μg/kg, 12 hr
  Mean BisEDT Conc, whole blood: 98 ng/mL
[2]; dose 47 μg/kg, 24 hr
  Mean BisEDT Conc, whole blood: 282 ng/mL
[2]; dose 47 μg/kg, 30 hr
  Mean BisEDT Conc, whole blood: 373 ng/mL
[2]; dose 124 μg/kg, 8 hr
  Mean BisEDT Conc, whole blood: 247 ng/mL
[2]; dose 124 μg/kg, 12 hr
  Mean BisEDT Conc, whole blood: 187 ng/mL
[2]; dose 124 μg/kg, 24 hr
  Mean BisEDT Conc, whole blood: 571 ng/mL
[2]; dose 124 μg/kg, 30 hr
  Mean BisEDT Conc, whole blood: 668 ng/mL
[2]; dose 400 μg/kg, 8 hr
  Mean BisEDT Conc, whole blood: 1701 ng/mL
[2]; dose 400 μg/kg, 12 hr
  Mean BisEDT Conc, whole blood: 1252 ng/mL
[2]; dose 400 μg/kg, 24 hr
  Mean BisEDT Conc, whole blood: 2700 ng/mL
[2]; dose 400 μg/kg, 30 hr
  Mean BisEDT Conc, whole blood: 2738 ng/mL
[2]; dose 3000 μg/kg, 1 hr
  Mean BisEDT Conc, whole blood: 485 ng/mL
[2]; dose 3000 μg/kg, 2 hr
  Mean BisEDT Conc, whole blood: 2504 ng/mL
[2]; dose 3000 μg/kg, 8 hr
  Mean BisEDT Conc, whole blood: 6570 ng/mL
[2]; dose 3000 μg/kg, 24 hr
  Mean BisEDT Conc, whole blood: 20525 ng/mL
